Measured values reported in publication PMC12279247, “Inhibition of RACK1‐Mediated NLRP3 Oligomerization (Active Conformation) Ameliorates Acute Respiratory Distress Syndrome” (Advanced Science, 2025).

Molecular target: T1, recombinant human RACK1 protein (Homo sapiens, UniProt P63244)
T1 construct: commercial recombinant protein
Experiment: surface plasmon resonance, bigelovin loaded on CM5 chip, RACK1 flowed over
Assay type: binding
Details: PBS pH 7.4, 0.05% Tween-20, 22 °C; covalent, Cys168

C=C1C(=O)O[C@H]2C[C@@H](C)[C@@H]3C=CC(=O)[C@@]3(C)[C@@H](OC(C)=O)[C@H]12 [bigelovin]
Kd: 240 nM
